Source: patent publication US10221197B2, “Phosphatidylinositol 3-kinase inhibitors” (Gilead Sciences, Inc., priority 2014, dated 2019)
Counter-ions that a name gives are not always drawn.

Experiments:
Format in all cases: biochemical
PI3Kβ = PI3Kβ (Homo sapiens (Human), UniProt P42338); assay: TR-FRET enzymatic assay of PI3K isoforms (PI3Kβ); settings: TR-FRET, 2×Km ATP, 2 μM PIP2, incubated for 30 minutes at 25° C.; read-out: β IC50
Procedure: (§1) The compounds of formula (I) were characterized for their enzymatic activity against the PI3K isoforms. Certain compounds of the present application, including certain compounds of formula (II) and (III) were also characterized for their enzymatic activity against PI3K isoforms. The activities were measured using a time-resolved fluorescence resonance energy transfer (TR-FRET) assay.

PI3Kδ = PI3Kδ (Homo sapiens (Human), UniProt O00329); assay: TR-FRET enzymatic assay of PI3K isoforms (PI3Kδ); settings: 2×Km ATP, 2 μM PIP2, incubated for 30 minutes at 25° C., read-out: δ IC50
PI3Kδ, sequence (O00329 whole entry, canonical isoform): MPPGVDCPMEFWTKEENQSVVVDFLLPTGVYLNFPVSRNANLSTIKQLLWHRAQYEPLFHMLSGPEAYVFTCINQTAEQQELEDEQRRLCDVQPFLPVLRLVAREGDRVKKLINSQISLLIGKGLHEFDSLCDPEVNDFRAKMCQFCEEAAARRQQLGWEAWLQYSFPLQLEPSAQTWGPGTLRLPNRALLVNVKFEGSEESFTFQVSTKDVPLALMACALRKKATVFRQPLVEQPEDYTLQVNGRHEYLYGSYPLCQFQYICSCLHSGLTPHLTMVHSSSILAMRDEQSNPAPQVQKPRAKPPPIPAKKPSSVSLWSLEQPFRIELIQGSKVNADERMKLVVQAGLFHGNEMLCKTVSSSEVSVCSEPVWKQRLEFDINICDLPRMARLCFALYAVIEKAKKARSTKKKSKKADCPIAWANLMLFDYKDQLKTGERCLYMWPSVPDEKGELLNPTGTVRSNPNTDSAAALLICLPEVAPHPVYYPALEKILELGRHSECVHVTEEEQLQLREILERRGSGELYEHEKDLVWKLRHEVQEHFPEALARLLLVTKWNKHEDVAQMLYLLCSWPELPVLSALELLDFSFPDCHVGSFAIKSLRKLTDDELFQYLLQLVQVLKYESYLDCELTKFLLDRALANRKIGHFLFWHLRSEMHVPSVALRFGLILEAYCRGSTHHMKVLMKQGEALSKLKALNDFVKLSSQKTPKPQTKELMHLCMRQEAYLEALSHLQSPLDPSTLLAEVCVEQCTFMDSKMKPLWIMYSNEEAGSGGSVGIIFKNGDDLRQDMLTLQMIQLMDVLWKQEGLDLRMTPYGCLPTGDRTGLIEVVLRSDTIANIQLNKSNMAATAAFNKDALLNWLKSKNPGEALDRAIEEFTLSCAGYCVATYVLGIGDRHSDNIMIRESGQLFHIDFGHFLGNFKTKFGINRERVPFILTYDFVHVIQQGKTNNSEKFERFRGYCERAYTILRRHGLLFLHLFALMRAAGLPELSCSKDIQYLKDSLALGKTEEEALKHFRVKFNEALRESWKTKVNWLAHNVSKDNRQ
PI3Kδ, sequence (P27986 whole entry partner, canonical isoform): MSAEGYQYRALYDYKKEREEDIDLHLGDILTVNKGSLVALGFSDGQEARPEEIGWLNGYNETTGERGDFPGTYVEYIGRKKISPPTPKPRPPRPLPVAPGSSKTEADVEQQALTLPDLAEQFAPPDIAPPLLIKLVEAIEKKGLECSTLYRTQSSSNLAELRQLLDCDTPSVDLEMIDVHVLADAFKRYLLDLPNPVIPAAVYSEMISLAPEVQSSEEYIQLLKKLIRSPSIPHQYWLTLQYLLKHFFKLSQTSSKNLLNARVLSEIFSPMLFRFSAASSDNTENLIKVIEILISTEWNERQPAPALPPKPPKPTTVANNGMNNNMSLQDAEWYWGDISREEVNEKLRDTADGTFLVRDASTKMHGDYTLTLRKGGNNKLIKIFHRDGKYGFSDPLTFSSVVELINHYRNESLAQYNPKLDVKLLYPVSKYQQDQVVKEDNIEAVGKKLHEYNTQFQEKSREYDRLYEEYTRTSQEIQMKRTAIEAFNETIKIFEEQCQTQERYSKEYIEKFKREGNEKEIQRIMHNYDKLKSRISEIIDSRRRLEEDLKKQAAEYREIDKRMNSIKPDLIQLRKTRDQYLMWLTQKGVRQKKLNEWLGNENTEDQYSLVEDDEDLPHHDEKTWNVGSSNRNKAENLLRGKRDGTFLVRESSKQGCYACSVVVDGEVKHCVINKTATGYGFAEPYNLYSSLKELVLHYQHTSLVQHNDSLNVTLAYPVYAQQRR
Procedure: as §1

PI3Kγ = PI3Kγ (Homo sapiens (Human), UniProt P48736); assay: TR-FRET enzymatic assay of PI3K isoforms (PI3Kγ); settings: TR-FRET, 2×Km ATP, 2 μM PIP2, PI3Kγ at 2 nM, incubated for 30 minutes at 25° C.; read-out: γ IC50
PI3Kγ, sequence (P48736 whole entry, canonical isoform): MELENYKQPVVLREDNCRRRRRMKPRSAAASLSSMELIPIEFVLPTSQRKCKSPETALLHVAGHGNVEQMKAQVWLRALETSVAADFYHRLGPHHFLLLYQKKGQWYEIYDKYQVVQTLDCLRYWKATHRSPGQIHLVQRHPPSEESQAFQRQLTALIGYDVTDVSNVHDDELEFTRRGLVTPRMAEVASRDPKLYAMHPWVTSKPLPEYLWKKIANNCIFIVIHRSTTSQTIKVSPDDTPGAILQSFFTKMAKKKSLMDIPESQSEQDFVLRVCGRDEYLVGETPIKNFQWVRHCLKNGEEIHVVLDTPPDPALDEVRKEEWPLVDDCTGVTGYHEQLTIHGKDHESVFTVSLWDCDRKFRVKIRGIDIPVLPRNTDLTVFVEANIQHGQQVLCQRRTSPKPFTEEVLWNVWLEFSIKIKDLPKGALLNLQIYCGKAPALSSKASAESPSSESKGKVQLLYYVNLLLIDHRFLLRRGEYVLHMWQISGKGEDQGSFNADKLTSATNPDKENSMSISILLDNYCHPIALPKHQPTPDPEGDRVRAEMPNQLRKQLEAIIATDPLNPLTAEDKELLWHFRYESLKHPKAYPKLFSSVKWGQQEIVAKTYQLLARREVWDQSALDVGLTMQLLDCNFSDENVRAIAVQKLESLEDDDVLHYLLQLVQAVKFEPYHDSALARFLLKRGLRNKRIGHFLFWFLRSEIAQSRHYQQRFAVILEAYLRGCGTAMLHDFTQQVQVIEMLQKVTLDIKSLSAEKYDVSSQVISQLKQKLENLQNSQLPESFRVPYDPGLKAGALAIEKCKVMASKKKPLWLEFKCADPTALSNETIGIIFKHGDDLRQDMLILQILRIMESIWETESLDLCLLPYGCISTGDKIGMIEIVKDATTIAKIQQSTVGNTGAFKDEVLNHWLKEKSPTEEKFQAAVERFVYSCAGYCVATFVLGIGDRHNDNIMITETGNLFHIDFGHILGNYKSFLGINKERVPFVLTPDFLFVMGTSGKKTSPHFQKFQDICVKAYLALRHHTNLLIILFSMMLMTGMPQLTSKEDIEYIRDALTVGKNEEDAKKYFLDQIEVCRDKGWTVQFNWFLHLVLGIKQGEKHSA
PI3Kγ, sequence (Q8WYR1 whole entry partner, canonical isoform): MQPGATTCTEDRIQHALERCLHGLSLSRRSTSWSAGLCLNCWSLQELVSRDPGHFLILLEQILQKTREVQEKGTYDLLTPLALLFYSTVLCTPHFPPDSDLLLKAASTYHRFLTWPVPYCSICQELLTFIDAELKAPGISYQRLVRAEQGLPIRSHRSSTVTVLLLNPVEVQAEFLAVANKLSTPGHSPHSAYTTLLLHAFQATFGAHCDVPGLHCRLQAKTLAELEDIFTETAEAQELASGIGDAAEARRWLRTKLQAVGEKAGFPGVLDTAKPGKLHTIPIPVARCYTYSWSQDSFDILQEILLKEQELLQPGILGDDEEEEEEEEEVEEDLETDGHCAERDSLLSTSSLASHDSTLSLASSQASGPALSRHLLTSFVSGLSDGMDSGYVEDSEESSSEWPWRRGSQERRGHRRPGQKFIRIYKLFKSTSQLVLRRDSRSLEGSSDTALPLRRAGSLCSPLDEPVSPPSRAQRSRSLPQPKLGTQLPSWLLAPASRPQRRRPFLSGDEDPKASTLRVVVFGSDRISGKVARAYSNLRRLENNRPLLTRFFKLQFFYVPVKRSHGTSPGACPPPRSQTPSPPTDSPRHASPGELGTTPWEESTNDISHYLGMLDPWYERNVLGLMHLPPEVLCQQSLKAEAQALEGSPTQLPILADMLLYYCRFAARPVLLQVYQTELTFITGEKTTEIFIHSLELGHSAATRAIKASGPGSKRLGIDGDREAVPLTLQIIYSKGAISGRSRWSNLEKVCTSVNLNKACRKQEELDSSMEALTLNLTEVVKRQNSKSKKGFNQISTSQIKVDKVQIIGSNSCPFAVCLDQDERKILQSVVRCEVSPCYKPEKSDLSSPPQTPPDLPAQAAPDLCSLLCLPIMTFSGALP
Procedure: as §1

PI3Kβ, sequence (P42338 whole entry, canonical isoform): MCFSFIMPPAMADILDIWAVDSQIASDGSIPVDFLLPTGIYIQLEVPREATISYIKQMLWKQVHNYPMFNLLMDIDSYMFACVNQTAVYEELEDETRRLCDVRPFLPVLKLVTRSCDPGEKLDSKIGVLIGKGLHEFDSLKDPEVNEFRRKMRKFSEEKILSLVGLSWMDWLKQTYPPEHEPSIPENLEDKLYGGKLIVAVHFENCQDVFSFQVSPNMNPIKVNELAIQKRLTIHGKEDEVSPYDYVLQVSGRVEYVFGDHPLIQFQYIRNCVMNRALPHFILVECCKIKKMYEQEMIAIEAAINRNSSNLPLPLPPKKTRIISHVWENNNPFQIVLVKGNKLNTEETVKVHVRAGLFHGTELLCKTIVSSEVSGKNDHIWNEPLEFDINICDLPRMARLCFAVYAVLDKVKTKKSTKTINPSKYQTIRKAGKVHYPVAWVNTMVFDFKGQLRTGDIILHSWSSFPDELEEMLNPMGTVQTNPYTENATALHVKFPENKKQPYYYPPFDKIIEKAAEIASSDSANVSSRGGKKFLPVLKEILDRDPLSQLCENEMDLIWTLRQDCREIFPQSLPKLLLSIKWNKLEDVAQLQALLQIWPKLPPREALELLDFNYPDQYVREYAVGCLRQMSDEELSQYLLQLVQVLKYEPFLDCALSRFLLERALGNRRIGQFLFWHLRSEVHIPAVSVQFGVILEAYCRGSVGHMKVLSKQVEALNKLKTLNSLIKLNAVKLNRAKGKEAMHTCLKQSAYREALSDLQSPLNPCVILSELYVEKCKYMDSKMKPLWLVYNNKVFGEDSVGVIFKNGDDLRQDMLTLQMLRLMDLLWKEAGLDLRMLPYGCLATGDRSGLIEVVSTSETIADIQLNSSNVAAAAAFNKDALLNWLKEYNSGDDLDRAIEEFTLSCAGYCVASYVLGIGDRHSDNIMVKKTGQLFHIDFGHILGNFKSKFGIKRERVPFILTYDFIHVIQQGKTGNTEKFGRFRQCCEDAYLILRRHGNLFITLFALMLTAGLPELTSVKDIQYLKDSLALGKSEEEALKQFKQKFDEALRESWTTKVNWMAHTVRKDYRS
PI3Kβ, sequence (P27986 whole entry partner, canonical isoform): as the sequence (P27986 whole entry partner, canonical isoform) above

SMILES | IC50 (PI3Kβ) [nM] | IC50 (PI3Kδ) [nM] | IC50 (PI3Kγ) [µM]
C[C@H](Nc1ncnc(N)c1C#N)c1nc2cccc(Cl)c2c(=O)n1-c1cccc(NC(=O)NS(=O)(=O)C2CC2)c1 [Compound 81, (S)—N-((3-(2-(1-((6-amino-5-cyanopyrimidin-4-yl)amino)ethyl)-5-chloro-4-oxoquinazolin-3(4H)-yl)phenyl)carbamoyl)cyclopropanesulfonamide] | 350 | 2 | 2.8
CCNC(=O)Nc1cccc(-n2c([C@H](C)Nc3ncnc(N)c3C#N)nc3cccc(Cl)c3c2=O)c1Cl (single isomer, unassigned) [Compound 94] | 5500 | 78 | > 10
CCNC(=O)Nc1cccc(-n2c([C@H](C)Nc3ncnc(N)c3C#N)nc3cc(F)ccc3c2=O)c1 [Compound 54, (S)-1-(3-(2-(1-((6-amino-5-cyanopyrimidin-4-yl)amino)ethyl)-7-fluoro-4-oxoquinazolin-3(4H)-yl)phenyl)-3-ethylurea] | 2600 | 250 | > 10
Cc1c(C(N)=O)cccc1-n1c([C@H](C)Nc2nc(N)nc(N)c2C#N)nc2cccc(Cl)c2c1=O (single isomer, unassigned) [Compound 6] | 32 | 4 | 0.62
C[C@H](Nc1ncnc(N)c1C#N)c1nc2cccc(Cl)c2c(=O)n1-c1cccc(NC(=O)Nc2ccncc2Cl)c1 [Compound 111, (S)-1-(3-(2-(1-((6-amino-5-cyanopyrimidin-4-yl)amino)ethyl)-5-chloro-4-oxoquinazolin-3(4H)-yl)phenyl)-3-(3-chloropyridin-4-yl)urea, trifluoroacetic acid salt] | 4 | 7 | 4.3
C[C@H](Nc1nc(N)nc(N)c1Cl)c1nc2c(Cl)ccc(Cl)c2c(=O)n1-c1cccc(C(N)=O)c1 [Compound 4, (S)-3-(5,8-dichloro-2-(1-((2,6-diamino-5-chloropyrimidin-4-yl)amino)ethyl)-4-oxoquinazolin-3(4H)-yl)benzamide] | 29 | 1 | 4.4
CC(C)NC(=O)Nc1cc(-n2c([C@H](C)Nc3ncnc(N)c3C#N)nc3cccc(Cl)c3c2=O)ccc1F [Compound 77, (S)-1-(5-(2-(1-((6-amino-5-cyanopyrimidin-4-yl)amino)ethyl)-5-chloro-4-oxoquinazolin-3(4H)-yl)-2-fluorophenyl)-3-isopropylurea] | 420 | 27 | 9.5
N#Cc1c(N)ncnc1N1CCC[C@H]1c1nc2cccc(Cl)c2c(=O)n1-c1cccc(NC(=O)NCC(F)(F)F)c1 [Compound 159, (S)-1-(3-(2-(1-(6-amino-5-cyanopyrimidin-4-yl)pyrrolidin-2-yl)-5-chloro-4-oxoquinazolin-3(4H)-yl)phenyl)-3-(2,2,2-trifluoroethyl)urea] | 42 | 33 | 5.6

Now from value to compound:

IC50 (PI3Kβ) [nM] | IC50 (PI3Kδ) [nM] | IC50 (PI3Kγ) [µM] | SMILES
7 | 5 | 1.5 | C[C@H](Nc1ncnc(N)c1C#N)c1nc2cccc(Cl)c2c(=O)n1-c1cccc(NC(=O)Nc2ccccc2OCCO)c1 [Compound 143, (S)-1-(3-(2-(1-((6-amino-5-cyanopyrimidin-4-yl)amino)ethyl)-5-chloro-4-oxoquinazolin-3(4H)-yl)phenyl)-3-(2-(2-hydroxyethoxy)phenyl)urea]
21 | 10 | 8.7 | CCNC(=O)Nc1cccc(-n2c([C@H](COCc3ccccc3)Nc3ncnc(N)c3C#N)nc3cccc(Cl)c3c2=O)c1 [Compound 132, (R)-1-(3-(2-(1-((6-amino-5-cyanopyrimidin-4-yl)amino)-2-(benzyloxy)ethyl)-5-chloro-4-oxoquinazolin-3(4H)-yl)phenyl)-3-ethylurea]
16 | 35 | 3.5 | COCCCNC(=O)Nc1cccc(-n2c([C@H](C)Nc3ncnc4[nH]cnc34)nc3cccc(Cl)c3c2=O)c1 [Compound 135, (S)-1-(3-(2-(1-((9H-purin-6-yl)amino)ethyl)-5-chloro-4-oxoquinazolin-3(4H)-yl)phenyl)-3-(3-methoxypropyl)urea]
7 | 8 | > 10 | C[C@H](Nc1ncnc(N)c1C#N)c1nc2c(Cl)ccc(Cl)c2c(=O)n1-c1cccc(NC(=O)NCCCO)c1 [Compound 64, (S)-1-(3-(2-(1-((6-amino-5-cyanopyrimidin-4-yl)amino)ethyl)-5,8-dichloro-4-oxoquinazolin-3(4H)-yl)phenyl)-3-(3-hydroxypropyl)urea]
7 | 7 | 3.4 | C[C@H](Nc1ncnc(N)c1C#N)c1nc2cccc(Cl)c2c(=O)n1-c1cccc(NC(=O)NC2CC2)c1 [Compound 125, (S)-1-(3-(2-(1-((6-amino-5-cyanopyrimidin-4-yl)amino)ethyl)-5-chloro-4-oxoquinazolin-3(4H)-yl)phenyl)-3-cyclopropylurea]
6 | 6 | 4.3 | CNC(=O)Nc1cccc(-n2c([C@H](C)Nc3ncnc(N)c3C#N)nc3cccc(Cl)c3c2=O)c1 [Compound 89, (S)-1-(3-(2-(1-((6-amino-5-cyanopyrimidin-4-yl)amino)ethyl)-5-chloro-4-oxoquinazolin-3(4H)-yl)phenyl)-3-methylurea]
7 | 1 | 2.7 | CC[C@H](Nc1nc(N)nc(N)c1Cl)c1nc2cccc(Cl)c2c(=O)n1-c1cccc(C(N)=O)c1 [Compound 7, (S)-3-(5-chloro-2-(1-((2,6-diamino-5-chloropyrimidin-4-yl)amino)propyl)-4-oxoquinazolin-3(4H)-yl)benzamide]
21 | 1 | 2.6 | NC(=O)c1cc(F)cc(-n2c([C@@H](Nc3nc(N)nc(N)c3Cl)C3CC3)nc3cccc(Cl)c3c2=O)c1 [Compound 162, (S)-3-(5-chloro-2-(cyclopropyl((2,6-diamino-5-chloropyrimidin-4-yl)amino)methyl)-4-oxoquinazolin-3(4H)-yl)-5-fluorobenzamide]
1 | 3 | 1.4 | C[C@H](Nc1ncnc(N)c1C#N)c1nc2cccc(Cl)c2c(=O)n1-c1cccc(NC(=O)Nc2ccccc2Cl)c1 [Compound 100, (S)-1-(3-(2-(1-((6-amino-5-cyanopyrimidin-4-yl)amino)ethyl)-5-chloro-4-oxoquinazolin-3(4H)-yl)phenyl)-3-(2-chlorophenyl)urea]
14 | 0.7 | 1.3 | C[C@H](Nc1nc(N)nc(N)c1Cl)c1nc2cccc(Cl)c2c(=O)n1-c1cccc(C(N)=O)c1 [Compound 1, (S)-3-(5-chloro-2-(1-((2,6-diamino-5-chloropyrimidin-4-yl)amino)ethyl)-4-oxoquinazolin-3(4H)-yl)benzamide]
14 | 5 | 3.7 | CONC(=O)Nc1cccc(-n2c([C@H](C)Nc3ncnc(N)c3C#N)nc3cccc(Cl)c3c2=O)c1 [Compound 115, (S)-1-(3-(2-(1-((6-amino-5-cyanopyrimidin-4-yl)amino)ethyl)-5-chloro-4-oxoquinazolin-3(4H)-yl)phenyl)-3-methoxyurea]
